These are literature values, as cited in US20220184007A1, “FORMULATIONS” (Synchroneuron Inc., priority 2019, published 2022).

For data set [1], the system named is psychogenic nonepileptic seizures. The following applies: flexible-dose, open-label, uncontrolled study.
The test system is the same in data set [2]. The following applies: flexible-dose, 12 weeks, 33 subjects, statistically underpowered.

Structures are written as SMILES.

For `COc1ccc(C(CN(C)C)C2(O)CCCCC2)cc1` (centres unmarked) [venlafaxine], the event reduction entry in data set [1] was “significant event reduction”.
On to `CN[C@H]1CC[C@@H](c2ccc(Cl)c(Cl)c2)c2ccccc21` [sertraline], for which the “biweekly event frequency change” value in data set [2] was “no difference between groups”.
